This experiment concerns the target T1, Human BCL-XL protein (N-terminal HiBiT tagged BCL-XL in HT1080 cells) (Homo sapiens, UniProt Q07817).
T1 construct: expressed in transfected cells; host or cells: HT-1080 (ATCC CCL-121), stably transduced with lentivirus pLV-UBC-N-HiBiT-BCL-XL-PGK-puro and selected with puromycin
Put plainly: HiBiT based degradation assay. The format is cell-based. The settings on record: HT1080 cells expressing HiBiT-BCL-XL; for Ymin (24 h) / Ymin (6 h): BCL-XL degradation normalized with DMSO control; for DC50: BCL-XL degradation. The text has this: Human BCL-XL protein coding open reading frame fused with N-terminal HiBiT coding sequence was synthesized from Integrated DNA Technologies (IDT). Next, N-HiBiT-BCL-XL sequence was cloned into pLV-UBC-PGK-Puro, a lentivirus plasmid purchased from Vectorbuilder, to generate pLV-UBC-N-HiBiT-BCL-XL-PGK-puro. Lentiviral particles were generated from Lenti-X™ 293T cells (Clontech) by co-transfection of pLV-UBC-N-HiBiT-BCL-XL-PGK-puro plasmids and lentiviral packaging plasmid mix (Cellecta). HT-1080 [HT1080](ATCC CCL-121) cells were infected with the lentivirus, and HT1080 cells stably integrated with the lentiviral vectors were established by incubation with 1 μg/mL puromycin (Thermofisher).
HT1080 cells expressing N-terminal HiBiT tagged BCL-XL were dispensed into a 384-well plate pre-spotted with compounds at varying concentrations. Three thousand cells were seeded into each well in 40 μL of RPMI 1640 media. […] After incubation, luminescence was read on a PHERAstar FSX Plate Reader (BMG). BCL-XL degradation at each indicated concentration was normalized with the DMSO control. The BCL-XL degradation curves were plotted using a four-parameter logistic model. For compounds displaying hook effects, the curve fitting was performed using the bottom point of the hook curves (i.e., the point of Ymin) as the bottom plateau to calculate EC50.
A general note: The HiBiT peptide binds its large partner to form an active luciferase.

Read-outs that look alike come from different tables or passages of the source. A value given as a limit tells only on which side of the number the result lay.

T1 sequence (Q07817 whole entry): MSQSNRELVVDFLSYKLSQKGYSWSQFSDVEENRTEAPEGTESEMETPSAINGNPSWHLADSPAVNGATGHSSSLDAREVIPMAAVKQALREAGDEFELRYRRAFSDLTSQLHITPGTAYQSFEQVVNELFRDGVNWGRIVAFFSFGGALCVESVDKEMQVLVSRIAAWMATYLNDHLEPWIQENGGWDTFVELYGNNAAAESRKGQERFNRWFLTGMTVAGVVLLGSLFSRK

As to `Cc1cc(O[C@H](C)CCC2CCN(CC(=O)Nc3ccc4c(C5CCC(=O)NC5=O)nn(C)c4c3)CC2)ccc1-c1ccc(N2CCc3cccc(C(=O)Nc4nc5ccccc5s4)c3C2)nc1C(=O)O` (stereo in doubt) [Compound 276a, 6-[8-(1,3-benzothiazol-2-ylcarbamoyl)-3,4-dihydro-1H-isoquinolin-2-yl]-3-[4-[(1R)-3-[1-[2-[[3-(2,6-dioxo-3-piperidyl)-1-methyl-indazol-6-yl]amino]-2-oxo-ethyl]-4-piperidyl]-1-methyl-propoxy]-2-methyl-phenyl]pyridine-2-carboxylic acid], the “Ymin (24 h)” value (24 h) is listed as “A (Ymin < 50%)”. For the same compound, the DC50 (24 h, read-out: EC50 (24 h)) is under 100 nM.

For the compound `Cc1cc(O[C@@H](C)CCC2CCN(CC(=O)Nc3ccc4c(C5CCC(=O)NC5=O)nn(C)c4c3)CC2)ccc1-c1ccc(N2CCc3cccc(C(=O)Nc4nc5ccccc5s4)c3C2)nc1C(=O)O` (stereo in doubt) [Compound 276b, 6-[8-(1,3-benzothiazol-2-ylcarbamoyl)-3,4-dihydro-1H-isoquinolin-2-yl]-3-[4-[(1S)-3-[1-[2-[[3-(2,6-dioxo-3-piperidyl)-1-methyl-indazol-6-yl]amino]-2-oxo-ethyl]-4-piperidyl]-1-methyl-propoxy]-2-methyl-phenyl]pyridine-2-carboxylic acid], where the note is “24 h”, the “Ymin (24 h)” value is on record as “A (Ymin < 50%)”. In addition, the DC50 (24 h, read-out: EC50 (24 h)) was under 100 nM.

Consider `Cc1c(OCC[C@H]2CC23CCN(CC(=O)Nc2ccc4c(C5CCC(=O)NC5=O)nn(C)c4c2)CC3)cccc1-c1ccc(N2CCc3cccc(C(=O)Nc4nc5ccccc5s4)c3C2)nc1C(=O)O` (stereo in doubt) [Compound 289b, 6-(8-(benzo[d]thiazol-2-ylcarbamoyl)-3,4-dihydroisoquinolin-2(1H)-yl)-3-(3-(2-((1R)-6-(2-((3-(2,6-dioxopiperidin-3-yl)-1-methyl-1H-indazol-6-yl)amino)-2-oxoethyl)-6-azaspiro[2.5]octan-1-yl)ethoxy)-2-methylphenyl)picolinic acid], for which the “Ymin (24 h)” value (24 h) is listed as “A (Ymin < 50%)”. Also, the DC50 (24 h, read-out: EC50 (24 h)) is under 100 nM.

Regarding `Cc1c(OCCC2CCN(CC(=O)Nc3cccc4c(C5CCC(=O)NC5=O)nn(C)c34)CC2)cccc1-c1ccc(N2CCc3cccc(C(=O)Nc4nc5ccccc5s4)c3C2)nc1C(=O)O` (centres unmarked) [Compound 101, 6-[8-(1,3-benzothiazol-2-ylcarbamoyl)-3,4-dihydro-1H-isoquinolin-2-yl]-3-[3-[2-[1-[2-[[3-(2,6-dioxo-3-piperidyl)-1-methyl-indazol-7-yl]amino]-2-oxo-ethyl]-4-piperidyl]ethoxy]-2-methyl-phenyl]pyridine-2-carboxylic acid], the “Ymin (6 h)” value (6 h) is on record as “B (50% ≤ Ymin < 70%)”. For the same compound, the “Ymin (24 h)” value (24 h) was “B (50% ≤ Ymin < 70%)”. Moreover, the DC50 (6 h, read-out: EC50 (6 h)) is under 100 nM and the DC50 (24 h, read-out: EC50 (24 h)) is under 100 nM.

Consider `Cc1c(Oc2ccc(CCC(=O)Nc3ccc(C4CCC(=O)NC4=O)cc3)cc2)cccc1-c1ccc(N2CCc3cccc(C(=O)Nc4nc5ccccc5s4)c3C2)nc1C(=O)O` (centres unmarked) [Compound 102, 6-[8-(1,3-benzothiazol-2-ylcarbamoyl)-3,4-dihydro-1H-isoquinolin-2-yl]-3-[3-[4-[3-[4-(2,6-dioxo-3-piperidyl)anilino]-3-oxo-propyl]phenoxy]-2-methyl-phenyl]pyridine-2-carboxylic acid], for which, where the note is “6 h”, the “Ymin (6 h)” value is listed as “B (50% ≤ Ymin < 70%)”. In addition, the DC50 (6 h, read-out: EC50 (6 h)) is under 100 nM.

Regarding `Cc1c(OCCN2CCN(CC(=O)Nc3ccc4c(C5CCC(=O)NC5=O)nn(C)c4c3)CC2)cccc1-c1ccc(N2CCc3cccc(C(=O)Nc4nc5ccccc5s4)c3C2)nc1C(=O)O` (centres unmarked) [Compound 103, 6-[8-(1,3-benzothiazol-2-ylcarbamoyl)-3,4-dihydro-1H-isoquinolin-2-yl]-3-[3-[2-[4-[2-[[3-(2,6-dioxo-3-piperidyl)-1-methyl-indazol-6-yl]amino]-2-oxo-ethyl]piperazin-1-yl]ethoxy]-2-methyl-phenyl]pyridine-2-carboxylic acid], the “Ymin (6 h)” value (6 h) is on record as “A (Ymin < 50%)”. For the same compound, the “Ymin (24 h)” value (24 h) was “A (Ymin < 50%)”. Also, the DC50 is under 100 nM (6 h, read-out: EC50 (6 h)) and under 100 nM (24 h, read-out: EC50 (24 h)).

For `Cc1c(OCCCN2CCN(CC(=O)Nc3ccc4c(C5CCC(=O)NC5=O)nn(C)c4c3)CC2)cccc1-c1ccc(N2CCc3cccc(C(=O)Nc4nc5ccccc5s4)c3C2)nc1C(=O)O` (centres unmarked) [Compound 104, 6-[8-(1,3-benzothiazol-2-ylcarbamoyl)-3,4-dihydro-1H-isoquinolin-2-yl]-3-[3-[3-[4-[2-[[3-(2,6-dioxo-3-piperidyl)-1-methyl-indazol-6-yl]amino]-2-oxo-ethyl]piperazin-1-yl]propoxy]-2-methyl-phenyl]pyridine-2-carboxylic acid], the “Ymin (6 h)” value (6 h) is reported as “B (50% ≤ Ymin < 70%)”. Further, the “Ymin (24 h)” value (24 h) is “A (Ymin < 50%)”. Also, the DC50 runs as follows: (6 h, read-out: EC50 (6 h)) under 100 nM; (24 h, read-out: EC50 (24 h)) under 100 nM.

For `Cc1c(OCCCN2CCN(CC(=O)Nc3cccc4c(C5CCC(=O)NC5=O)nn(C)c34)CC2)cccc1-c1ccc(N2CCc3cccc(C(=O)Nc4nc5ccccc5s4)c3C2)nc1C(=O)O` (centres unmarked) [Compound 105, 6-[8-(1,3-benzothiazol-2-ylcarbamoyl)-3,4-dihydro-1H-isoquinolin-2-yl]-3-[3-[3-[4-[2-[[3-(2,6-dioxo-3-piperidyl)-1-methyl-indazol-7-yl]amino]-2-oxo-ethyl]piperazin-1-yl]propoxy]-2-methyl-phenyl]pyridine-2-carboxylic acid], the “Ymin (6 h)” value (6 h) was “B (50% ≤ Ymin < 70%)”. Also, for the setting “24 h”, the “Ymin (24 h)” value was “B (50% ≤ Ymin < 70%)”. Besides, the DC50 is, setting by setting: (6 h, read-out: EC50 (6 h)) under 100 nM; (24 h, read-out: EC50 (24 h)) 100 to 1000 nM.

For the compound `Cc1c(OCCC2CCN(CC(=O)Nc3ccc4c(C5CCC(=O)NC5=O)nn(C)c4c3)CC2)cccc1-c1ccc(N2CCc3cccc(C(=O)Nc4nc5ccccc5s4)c3C2)nc1C(=O)O` (centres unmarked) [Compound 106, 6-[8-(1,3-benzothiazol-2-ylcarbamoyl)-3,4-dihydro-1H-isoquinolin-2-yl]-3-[3-[2-[1-[2-[[3-(2,6-dioxo-3-piperidyl)-1-methyl-indazol-6-yl]amino]-2-oxo-ethyl]-4-piperidyl]ethoxy]-2-methyl-phenyl]pyridine-2-carboxylic acid], the “Ymin (6 h)” value (6 h) is “A (Ymin < 50%)”. In addition, the “Ymin (24 h)” value (24 h) is “A (Ymin < 50%)”. The DC50 is, setting by setting: (6 h, read-out: EC50 (6 h)) under 100 nM; (24 h, read-out: EC50 (24 h)) under 100 nM.

On to `Cc1c(Oc2ccc(CCC(=O)Nc3ccc4c(C5CCC(=O)NC5=O)nn(C)c4c3)cc2)cccc1-c1ccc(N2CCc3cccc(C(=O)Nc4nc5ccccc5s4)c3C2)nc1C(=O)O` (centres unmarked) [Compound 107, 6-[8-(1,3-benzothiazol-2-ylcarbamoyl)-3,4-dihydro-1H-isoquinolin-2-yl]-3-[3-[4-[3-[[3-(2,6-dioxo-3-piperidyl)-1-methyl-indazol-6-yl]amino]-3-oxo-propyl]phenoxy]-2-methyl-phenyl]pyridine-2-carboxylic acid], for which the “Ymin (6 h)” value (6 h) is “C (Ymin ≥ 70%)”. In addition, where the note is “24 h”, the “Ymin (24 h)” value was “C (Ymin ≥ 70%)”. Also, the DC50 was 1000 to 10000 nM (6 h, read-out: EC50 (6 h)) and 1000 to 10000 nM (24 h, read-out: EC50 (24 h)).

The values above are taken from patent publication US20240238423A9, “TETRAHYDROISOQUINOLINE HETEROBIFUNCTIONAL BCL-XL DEGRADERS” (Treeline Biosciences, Inc., priority 2022, published 2024).
